Reference: patent US20250381129A1, “ANTI-AGING SKIN CARE COMPOSITION” (L'OREAL, priority 2024, published 2025)

Tests used:
Settings in all cases: topical, 5 consecutive days, HPR 0.01%, LA 3%, Eperuline 1% or 3%
IL-1A = assay: Quantification of secreted IL-1A in culture supernatant of CSC-stimulated human ex-vivo skin (ProcartaPlex/Luminex)
Procedure: (§1) Human ex-vivo skin was cultured with or without CSC and topically treated with either HPR, HPR-LA, HPR-Eperuline and HPR-LA-Eperuline for 5 days consecutive days (See FIG. 2B; See Table 4 for concentrations).
(§2) Skin tissues were divided into groups of three and placed in the 24-well transwell plates, […] (Cell stimulation cocktail 500×(50-930-5)) was diluted to a 2× concentration in culture media and 650 uL was added to the well on the first day. Topical treatments were undertaken daily by pipetting 5 uL of treatments onto the tissue and using a Q-tip, spreading treatments across the tissue and left to absorb at room temperature for 30 minutes. Base media without stimulants served as the control group. Tissues were replenished with fresh media with the stimulant on day 1 and 3. On days 1, 3 and 5, supernatant from the culture was collected and aliquoted, and the tissues were bisected and fixed in 10% neutral buffered formalin (Fisher Scientific 22-126-347) for 3 h and then switched to 70% ethanol for storage until histology.
(§3) Tissue culture supernatant was collected at the end of the cultures to evaluate the secretion of several cytokines, chemokines, and growth factors. […]
(§4) Data were assessed using a two-way ANOVA with multiple comparison test. […]

IL-23 = assay: Quantification of secreted IL-23 in culture supernatant of CSC-stimulated human ex-vivo skin (ProcartaPlex/Luminex)
Procedure: as §1, §2, §3, §4

[1] = test system: CSC-stimulated human ex-vivo skin; assay: H&E histological analysis of CSC-stimulated human ex-vivo skin
Procedure: as §1
Fresh human ex-vivo skin was obtained through donor informed consent following abdominoplasty procedures. The tissues were obtained through BioIVT (Westbury, NY, USA) following an approved IRB protocol and shipped to a BSC level 2 research laboratory within 24 h after the procedure where the experiments took place. All experiments were performed in accordance with relevant guidelines and regulations. Donors included a person, person and person. Ex vivo tissues were prepared by excising the subcutaneous fat followed by punch biopsies with disposable 12 mm Skin Biopsy Punch (Fisher Scientific, NC9253254) and placed in 24-well transwell plates with permeable polyester membrane inserts (Fisher Scientific, 07-200-161). At least three biopsies were used for each condition.
Skin tissues were divided into groups of three and placed in the 24-well transwell plates, […] (Cell stimulation cocktail 500×(50-930-5)) was diluted to a 2× concentration in culture media and 650 uL was added to the well on the first day. […]

In the case of CC1=C(/C=C/C(C)=C/C=C/C(C)=C/C(=O)OCC(=O)C(C)(C)C)C(C)(C)CCC1 [HPR, hydroxypinacolone retinoate], the “secreted IL-1A” value (IL-1A) was “significant increase”, the “secreted IL-23” value (IL-23) was “significant increase” and the “histological signs of inflammation (epidermal spongiosis, immune infiltration)” value [1] was “exacerbated”.
